From patent US20230348424A1, “HETEROCYCLIC COMPOUNDS AND METHODS OF USE” (Schrödinger, Inc., priority 2022, published 2023) come the findings set out here.

Sequence of SOS1:KRAS (G12C) interaction (Q07889 564-1049, stated change not applied): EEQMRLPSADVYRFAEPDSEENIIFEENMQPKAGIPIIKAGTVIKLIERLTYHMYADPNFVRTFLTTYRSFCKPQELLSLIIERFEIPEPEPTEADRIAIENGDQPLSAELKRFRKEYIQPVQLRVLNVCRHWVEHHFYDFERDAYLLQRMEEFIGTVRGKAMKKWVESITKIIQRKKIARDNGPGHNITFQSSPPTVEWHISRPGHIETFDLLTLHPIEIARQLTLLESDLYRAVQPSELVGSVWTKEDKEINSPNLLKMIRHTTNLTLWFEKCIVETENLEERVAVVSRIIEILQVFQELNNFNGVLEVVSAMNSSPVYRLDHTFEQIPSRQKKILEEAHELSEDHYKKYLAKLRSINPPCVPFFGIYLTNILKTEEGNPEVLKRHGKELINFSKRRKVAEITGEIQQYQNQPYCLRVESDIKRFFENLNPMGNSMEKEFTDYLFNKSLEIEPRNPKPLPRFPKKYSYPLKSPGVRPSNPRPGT

The target in the test is SOS1:KRAS (G12C) interaction (Homo sapiens (Human), UniProt Q07889). Nature of the test: SOS1 KRas(G12C) FRET Assay. As to conditions: 0.5 nM His10-SOS1 (res. 564-1049), 2.5 nM GST-KRAS G12C (res. 1-169), 2 hrs at RT. The class given is binding. As for the experimental part: Inhibition of the SOS 1:KRAS interaction was measured using purified GST-tagged KRAS (res. 1-169, G12C, purified based on Hillig, et al., Proc Natl Acad Sci USA (2019); 116(7):2551-2560) and recombinant His10-SOS1 (res. 564-1049; purified based on Hillig, et al.). The final assay was performed at 20 uL with 0.5 nM SOS1 protein and 2.5 nM KRAS protein in a buffer of PBS, 0.1% BSA, 5 mM MgCh, 0.0025% Igepal, 100 mM KF, 5 mM DTT in a white 384 square well OptiPlate (PerkinElmer, Cat. 6007290). A 2x KRAS working solution was prepared in an assay buffer containing 5 nM GST-KRAS G12C and 2 nM anti-GST-Eu(K) (Cisbio, Cat. 61GSTKLA) and pre-incubated for 15 minutes at 25° C. […] The final DMSO concentration is 0.5%. Plates were incubated at RT for 2 hrs before the FRET signal was measured using Envision at emission 665 nm and 615 nm. FRET signal was converted to percentage of protein-protein interaction using the following equation:
• C: signal with compound treatment • P: signal for positive control (DMSO) • N: signal for negative control (no SOS1 added)
IC50 and Hill coefficients were obtained using Graph Pad Prism (Graph Pad software, Inc, USA) with non-linear regression analysis.
What is called IC50 is the midpoint of a concentration-inhibition curve. Lower therefore signals greater potency in that assay. The compound `C[C@@H](NC(=O)c1cn([C@@H]2CC2(F)F)c(=O)cc1N[C@H]1[C@@H]2CN(C)C[C@@H]21)c1cccc(C(C)(F)F)c1F` (single isomer, unassigned) [Example 201] yielded an IC50 of 14 nM. The result for `COCCN1CC(CNc2cc(=O)n(C3CCOCC3)cc2C(=O)N[C@H](C)c2cccc(C(F)(F)F)c2C)C1` [Example 295, (R)-4-(((1-(2-methoxyethyl)azetidin-3-yl)methyl)amino)-N-(1-(2-methyl-3-(trifluoromethyl)phenyl)ethyl)-6-oxo-1-(tetrahydro-2H-pyran-4-yl)-1,6-dihydropyridine-3-carboxamide] reads 53.6 nM. The result for `C[C@@H](NC(=O)c1cn(C2(C(F)F)CCC2)c(=O)cc1N[C@H]1[C@@H]2C[C@H]1CN(C)C2)c1cccc(C(F)F)c1F` (single isomer, unassigned) [Example 253] reads 43.1 nM; that for `Cc1c([C@@H](C)NC(=O)c2cn(C3CCOCC3)c(=O)cc2NC2CN(C)C2)cccc1C(F)(F)F` [Example 28, (R)-N-(1-(2-methyl-3-(trifluoromethyl)phenyl)ethyl)-4-((1-methylazetidin-3-yl)amino)-6-oxo-1-(tetrahydro-2H-pyran-4-yl)-1,6-dihydropyridine-3-carboxamide], 59.2 nM. The result for `Cc1c([C@@H](C)NC(=O)c2cn(C3CCOCC3)c(=O)cc2NC2CNC2)cccc1C(F)(F)F` [Example 43, (R)-4-(azetidin-3-ylamino)-N-(1-(2-methyl-3-(trifluoromethyl)phenyl)ethyl)-6-oxo-1-(tetrahydro-2H-pyran-4-yl)-1,6-dihydropyridine-3-carboxamide] reads 75.7 nM; that for `C[C@@H](NC(=O)c1cn(C2(C(F)F)CC2)c(=O)cc1N[C@@H]1CCN2CCC[C@H]2C1)c1cccc(C(F)F)c1F` (single isomer, unassigned) [Example 303], 18.2 nM; that for `Cc1c([C@@H](C)NC(=O)c2cn(C3CCOCC3)c(=O)cc2NC2CCN(C)CC2)cccc1C(F)(F)F` [Example 1, (R)-N-(I-(2-methyl-3-(trifluoromethyl)phenyl)ethyl)-4-((I-methylpiperidin-4-yl)amino)-6-oxo-1-(tetrahydro-2H-pyran-4-yl)-1,6-dihydropyridine-3-carboxamide], 27.4 nM. In turn, `Cc1c(C#N)cccc1[C@@H](C)NC(=O)c1cn(C23CC(C2)C3)c(=O)cc1N[C@H]1[C@@H]2CN(C)C[C@@H]21` [Example 181, 1-(bicyclo[1.1.1]pentan-1-yl)-N-((R)-1-(3-cyano-2-methylphenyl)ethyl)-4-(((1R,5S,6s)-3-methyl-3-azabicyclo[3.1.0]hexan-6-yl)amino)-6-oxo-1,6-dihydropyridine-3-carboxamide] showed an IC50 of 79.8 nM.

In the case of `C[C@@H](NC(=O)c1cn([C@H]2[C@H](C)C2(F)F)c(=O)cc1N[C@H]1[C@@H]2CN(C)C[C@@H]21)c1cccc(C(F)(F)F)c1F` (single isomer, unassigned) [Example 198], the IC50 came out at 3.41 nM. Against the preceding compound, the IC50 is about 23-fold lower. `C[C@@H](NC(=O)c1cn(C23CC(C2)C3)c(=O)cc1N)c1cccc(C(F)F)c1F` [Example 190, (R)-4-amino-1-(bicyclo[1.1.1]pentan-1-yl)-N-(1-(3-(difluoromethyl)-2-fluorophenyl)ethyl)-6-oxo-1,6-dihydropyridine-3-carboxamide] gave an IC50 of 315 nM. The result for `Cc1c([C@@H](C)NC(=O)c2cn(C3CCOCC3)c(=O)cc2N[C@@H]2CCCN(C)CC2)cccc1C(F)(F)F` (single isomer, unassigned) [Example 34] reads 22.9 nM; that for `C[C@@H](NC(=O)c1cn(C2(C(F)F)CC2)c(=O)cc1N[C@H]1C[C@@H](N(C)C)C1)c1cccc(C(F)F)c1F` [Example 229, N-((R)-1-(3-(difluoromethyl)-2-fluorophenyl)ethyl)-1-(1-(difluoromethyl)cyclopropyl)-4-(((1s,3S)-3-(dimethylamino)cyclobutyl)amino)-6-oxo-1,6-dihydropyridine-3-carboxamide], 22.7 nM.

For `C[C@@H](NC(=O)c1cn([C@H]2C[C@H](C3CC3)C2)c(=O)cc1N[C@H]1[C@@H]2CN(C)C[C@@H]21)c1cccc(C(F)F)c1F` (single isomer, unassigned) [Example 249], the IC50 was 16.5 nM. `CCN1C[C@@H]2[C@H](C1)[C@H]2Nc1cc(=O)n(C2(C(F)F)CC2)cc1C(=O)N[C@H](C)c1cccc(C(F)F)c1F` [Example 58, N-((R)-1-(3-(difluoromethyl)-2-fluorophenyl)ethyl)-1-(1-(difluoromethyl)cyclopropyl)-4-(((1R,5S,6s)-3-ethyl-3-azabicyclo[3.1.0]hexan-6-yl)amino)-6-oxo-1,6-dihydropyridine-3-carboxamide] yielded a 50% inhibitory concentration (IC50) of 30.8 nM. The compound `C[C@@H](NC(=O)c1cn(C2CCC2)c(=O)cc1N[C@H]1[C@@H]2CN(C)C[C@@H]21)c1cccc(C(F)F)c1F` [Example 150, 1-cyclobutyl-N-((R)-1-(3-(difluoromethyl)-2-fluorophenyl)ethyl)-4-(((1R,5S,6s)-3-methyl-3-azabicyclo[3.1.0]hexan-6-yl)amino)-6-oxo-1,6-dihydropyridine-3-carboxamide] had an IC50 of 12.3 nM. The result for `CC(C)N1C[C@@H]2[C@H](C1)[C@H]2Nc1cc(=O)n(C2(C(F)F)CC2)cc1C(=O)N[C@H](C)c1cccc(C(F)F)c1F` [Example 59, N-((R)-1-(3-(difluoromethyl)-2-fluorophenyl)ethyl)-1-(1-(difluoromethyl)cyclopropyl)-4-(((1R,5S,6s)-3-isopropyl-3-azabicyclo[3.1.0]hexan-6-yl)amino)-6-oxo-1,6-dihydropyridine-3-carboxamide] reads 31.5 nM. The result for `C[C@@H](NC(=O)c1cn(C2(C(F)F)CC2)c(=O)cc1N[C@@H]1CCCn2cncc21)c1cccc(C(F)F)c1F` (single isomer, unassigned) [Example 184] reads 55.8 nM. The result for `CC(NC(=O)c1cn(C2(C(F)F)CC2)c(=O)cc1NC1CCN(C)CC1)c1ccc(C2CC2)c(C(F)(F)F)c1` (stereo not drawn) [Example 169, N-(1-(4-cyclopropyl-3-(trifluoromethyl)phenyl)ethyl)-1-(1-(difluoromethyl)cyclopropyl)-4-((1-methylpiperidin-4-yl)amino)-6-oxo-1,6-dihydropyridine-3-carboxamide] reads 5900 nM. In the case of `Cc1c([C@@H](C)NC(=O)c2cn(C3CCOCC3)c(=O)cc2NCCONC(=N)N)cccc1C(F)(F)F` [Example 46, (R)-4-((2-(guanidinooxy)ethyl)amino)-N-(1-(2-methyl-3-(trifluoromethyl)phenyl)ethyl)-6-oxo-1-(tetrahydro-2H-pyran-4-yl)-1,6-dihydropyridine-3-carboxamide], the IC50 was found to be 18.2 nM. In the case of `Cc1c([C@@H](C)NC(=O)c2cn(C3CCOCC3)c(=O)cc2N[C@H]2[C@@H]3C[C@H]2CN(C)C3)cccc1C(F)(F)F` (single isomer, unassigned) [Example 23], the IC50 amounted to 47.1 nM. The result for `C[C@@H](NC(=O)c1cn(C2(C(F)F)CC2)c(=O)cc1N[C@H]1C[C@@H]2C[C@H]1CN2C)c1cccc(C(F)F)c1F` (single isomer, unassigned) [Example 237] reads 19.4 nM. The result for `Cc1c([C@@H](C)NC(=O)c2cn(C3CCOCC3)c(=O)cc2N[C@H]2CCN(C)C3(CC3)C2)cccc1C(F)(F)F` (single isomer, unassigned) [Example 39] reads 43.7 nM; that for `COc1ccc(C(C)NC(=O)c2cn(C3(C(F)F)CC3)c(=O)cc2NC2CCN(C)CC2)cc1C(F)(F)F` (stereo not drawn) [Example 173, 1-(1-(difluoromethyl)cyclopropyl)-N-(1-(4-methoxy-3-(trifluoromethyl)phenyl)ethyl)-4-((1-methylpiperidin-4-yl)amino)-6-oxo-1,6-dihydropyridine-3-carboxamide], 1180 nM; that for `Cc1cc([C@@H](C)NC(=O)c2cn(C3(C(F)F)CC3)c(=O)cc2NC2CCN(C)CC2)cc(C(F)(F)F)n1` (single isomer, unassigned) [Example 171], 1250 nM. The result for `C[C@@H](NC(=O)c1cn(C2(C)CC(F)(F)C2)c(=O)cc1NC1CCN(C)CC1)c1cccc(C(F)F)c1F` [Example 222, (R)-1-(3,3-difluoro-1-methylcyclobutyl)-N-(1-(3-(difluoromethyl)-2-fluorophenyl)ethyl)-4-((1-methylpiperidin-4-yl)amino)-6-oxo-1,6-dihydropyridine-3-carboxamide] reads 27.6 nM. With `C[C@@H](NC(=O)c1cn(C2(C(F)F)CCC2)c(=O)cc1NC1CCN(C)CC1)c1cccc(C(F)F)c1F` [Example 76, (R)-N-(1-(3-(difluoromethyl)-2-fluorophenyl)ethyl)-1-(1-(difluoromethyl)cyclobutyl)-4-((1-methylpiperidin-4-yl)amino)-6-oxo-1,6-dihydropyridine-3-carboxamide], the IC50 was 12.5 nM. `C[C@@H](NC(=O)c1cn(C2(C(F)F)CC2)c(=O)cc1N[C@@H]1CN2CCC1(F)CC2)c1cccc(C(F)F)c1F` [Example 187, N-((R)-1-(3-(difluoromethyl)-2-fluorophenyl)ethyl)-1-(1-(difluoromethyl)cyclopropyl)-4-(((R)-4-fluoroquinuclidin-3-yl)amino)-6-oxo-1,6-dihydropyridine-3-carboxamide] returned an IC50 of 22.3 nM.
